Columns and labels:
CA46 cells = assay: GFP-NLS transduction in different adherent and suspension cells (flow cytometry, Pos cells % and viability %); format: cell-based, Homo sapiens; details: Protocol C, 5 μM shuttle, 5 μM GFP-NLS, 15 seconds
Method: (§1) The ability of the shuttle agent His-CM18-PTD4 to deliver GFP-NLS to the nuclei of different adherent and suspension cells using Protocols B (adherent cells) or C (suspension cells) as described in Example 9.1 was examined. The cell lines tested included: HeLa, Balb3T3, HEK 293T, CHO, NIH3T3, Myoblasts, Jurkat, THP-1, CA46, and HT2 cells, which were cultured as described in Example 1. GFP-NLS (5 μM; see Example 5.1) was co-incubated with 35 μM of His-CM18-PTD4 and exposed to adherent cells for 10 seconds (Protocol B), or was co-incubated with 5 μM of His-CM18-PTD4 and exposed to suspension cells for 15 seconds (Protocol C). […] “Pos cells (%)” is the mean percentages of all cells that emanate a GFP signal.

HeLa cells = assay: HOXB4-WT transduction, immuno-labelling and visualization by microscopy; format: cell-based, Human; details: HOXB4-WT 25 μM; shuttle 35 μM; 10 seconds, Protocol B
Method: Adherent cells were plated on a sterile glass strip at 1.5×10^5 cells per well in a 24-plate well and incubated overnight at 37° C. For fixation, cells were incubated in 500 μL per well of formaldehyde (3.7% v/v) for 15 minutes at room temperature, and washed 3 times for 5 minutes with PBS. For permeabilization, cells were incubated in 500 μL per well of Triton™ X-100 (0.2%) for 10 minutes at room temperature, and washed 3 times for 5 minutes with PBS. For blocking, cells were incubated in 500 μL per well of PBS containing 1% BSA (PBS/BSA) for 60 minutes at room temperature. Primary mouse monoclonal antibody was diluted PBS/BSA (1%). Cells were incubated in 30 μL of primary antibody overnight at 4° C. Cells were washed 3 times for 5 minutes with PBS. Secondary antibody was diluted in PBS/BSA (1%) and cells were incubated in 250 μL of secondary antibody 30 minutes at room temperature in the dark. Cells were washed 3 times for 5 minutes with PBS. […]
Recombinant HOXB4-WT transcription factor (25 μM; Example 14.1) was co-incubated with 35 μM of His-CM18-PTD4 and exposed to HeLa cells for 10 seconds using Protocol B as described in Example 9.1. […] The cells were visualized by bright field and fluorescence microscopy at 20× and 40× magnifications as described in Example 3.2, and sample results are shown in FIG. 45. […]

[1] = tested on: 293T, Balb3T3, CHO, Myoblasts, Jurkat, CA46, HT2 and NIH3T3 cells; assay: GFP-NLS transduction in several adherent and suspension cells, visualization by microscopy; format: cell-based; details: 35 μM, 10 seconds (adherent) or 5 μM, 15 seconds (suspension); GFP-NLS 5 μM
Method: GFP-NLS recombinant protein (5 μM; see Example 5.1) was co-incubated with 35 μM of His-CM18-PTD4 and exposed to adherent cells for 10 seconds using […], or was co-incubated with 5 μM of His-CM18-PTD4 and exposed to suspension cells for 15 seconds using Protocol B, as described in Example 9.1. After washing the cells, GFP fluorescence was visualized by bright field and fluorescence microscopy. Sample images captured at 10× magnifications showing GFP fluorescence are shown for 293T (FIG. 37A), Balb3T3 (FIG. 37B), CHO (FIG. 37C), Myoblasts (FIG. 370), Jurkat (FIG. 37E), CA46 (FIG. 37F), HT2 (FIG. 37G), and NIH3T3 (FIG. 37H) cells. The insets show corresponding flow cytometry results performed as described in Example 3.3, indicating the percentage of GFP-NLS-positive cells.
Nuclear localization of the GFP-NLS was further confirmed in fixed and permeabilized myoblasts using cell immuno-labelling as described in Example 3.2a. GFP-NLS was labeled using a primary mouse monoclonal anti-GFP antibody (Feldan, #A017) and a secondary goat anti-mouse Alexa™-594 antibody (Abcam #150116). Nuclei were labelled with DAPI. Sample results for primary human myoblast cells are shown in FIG. 38, in which GFP immuno-labelling is shown in FIG. 38A, and an overlay of the GFP immuno-labelling and DAPI labelling is shown in FIG. 38B.

HEK 293T cells = assay: GFP-NLS transduction in different adherent and suspension cells (flow cytometry, Pos cells % and viability %); format: cell-based, Human; details: Protocol B, 35 μM shuttle, 5 μM GFP-NLS, 10 seconds
Method: (§2) The media in wells was removed, cells were washed once with PBS previously warmed at 37° C., and the shuttle agent/cargo mixture was then added to cover all cells for the desired length of time. The shuttle agent/cargo mixture in wells was removed, the cells were washed once with PBS, and fresh complete medium was added. Before analysis, the cells were washed once with PBS and fresh complete medium was added.
as §1

Myoblasts = assay: as above; format: cell-based, Human; details: Protocol B, 35 μM shuttle, 5 μM GFP-NLS, 10 seconds
Method: as §2, §1

Q: For CC[C@H](C)[C@H](NC(=O)[C@H](CCCCN)NC(=O)[C@H](CCCCN)NC(=O)[C@H](Cc1ccccc1)NC(=O)[C@H](CC(C)C)NC(=O)[C@H](CCCCN)NC(=O)[C@H](Cc1c[nH]c2ccccc12)NC(=O)[C@H](CCCCN)NC(=O)[C@H](Cc1c[nH]cn1)NC(=O)[C@H](Cc1c[nH]cn1)NC(=O)[C@H](Cc1c[nH]cn1)NC(=O)[C@H](Cc1c[nH]cn1)NC(=O)[C@H](Cc1c[nH]cn1)NC(=O)[C@@H](N)Cc1c[nH]cn1)C(=O)NCC(=O)N[C@@H](C)C(=O)N[C@H](C(=O)N[C@@H](CC(C)C)C(=O)N[C@@H](CCCCN)C(=O)N[C@H](C(=O)N[C@@H](CC(C)C)C(=O)N[C@H](C(=O)N[C@H](C(=O)NCC(=O)N[C@@H](Cc1ccc(O)cc1)C(=O)N[C@@H](C)C(=O)N[C@@H](CCCNC(=N)N)C(=O)N[C@@H](C)C(=O)N[C@@H](C)C(=O)N[C@@H](C)C(=O)N[C@@H](CCCNC(=N)N)C(=O)N[C@@H](CCC(N)=O)C(=O)N[C@@H](C)C(=O)N[C@@H](CCCNC(=N)N)C(=O)N[C@@H](C)C(=O)O)[C@@H](C)O)[C@@H](C)O)C(C)C)C(C)C [His-CM18-PTD4], which “Cell viability (%) (±St. Dev.; n = 3)” value (CA46 cells) is on record?
A: Its value is 71.6 ± 1.0%.

Q: What about the “Mean % cells with GFP signal (±St. Dev.; n = 3)” value (from here on “Mean % cells with GFP signal”) (CA46 cells) of the same compound?
A: Its value is 24.4 ± 0.6%.

Q: And the “HOXB4-WT nuclear delivery (immuno-labelling)” value (HeLa cells)?
A: The value was “HOXB4-WT was successfully delivered to the nucleus after 30 min”.

Q: And the “GFP-NLS nuclear delivery (microscopy)” value [1]?
A: Its value is “successfully delivered to the nucleus of all the tested cells”.

Q: What about the “Cell viability (%) (±St. Dev.; n = 3)” value (HEK 293T cells) of the same compound?
A: The value was 95.3 ± 1.2%.

Q: And the “Mean % cells with GFP signal” value (HEK 293T cells)?
A: Its value is 55.3 ± 0.2%.

Q: And the “Cell viability (%) (±St. Dev.; n = 3)” value (Myoblasts)?
A: Its value is 23.5 ± 1.1%.

Q: And the “Mean % cells with GFP signal” value (Myoblasts)?
A: The value was 25.6 ± 2.6%.
